# Data reported in paper PMC2707030 (Clinical cancer research : an official journal of the …, 2009).
# Legend:
# [1] = tested on: ATP-binding cassette transporter ABCB1 (P-glycoprotein, MDR1); details: cited from earlier work
# [2] = cited from earlier work
# [3] = Population pharmacokinetics; assay type: in vivo, human
# [4] = rats; cited from earlier work
# [5] = nonparametric bootstrap, 1342 converged of 1500 runs, 98 patients, final model
smiles,measurement,setting,value
C/C=C1\NC(=O)[C@H]2CSSCC/C=C/[C@H](CC(=O)N[C@H](C(C)C)C(=O)N2)OC(=O)[C@H](C(C)C)NC1=O [romidepsin],Substrate of ABCB1,[1],substrate
same,Total clearance reported in adults,[2]; dose 13 mg/m^2,4.8 L/h/m^2
same,Mean CL reported in adults,[2]; dose 17.8 mg/m^2,10.5 L/h/m^2
same,"CL, non-carriers of ABCB1 2677 GA/AA",[3]; difference to carriers did not reach statistical criteria (ΔOFV = 3.4),16 L/h
same,Estimated elimination half-life,"[3]; following 4-hour infusion, 14 or 18 mg/m^2, final two-compartment model",3.5 h
same,"CL, carriers of ABCB1 2677 GA/AA","[3]; n=7, difference to non-carriers did not reach statistical criteria (ΔOFV = 3.4)",13 L/h
same,"CL, bootstrap analysis median (%RSE)",[3]; [5],15.9 (6.2) L/h
same,"Q, bootstrap analysis median (%RSE)",[3]; [5],1.01 (14.7) L/h
same,"V1, bootstrap analysis median (%RSE)",[3]; [5],9.71 (8.9) L
same,"V2, bootstrap analysis median (%RSE)",[3]; [5],4.73 (11.1) L
same,Fraction of the dose excreted into the bile,[4],66%
